The values that follow come from patent US10071130B2, “Methods and compositions related to Hsp90 inhibitors and breast cancer” (The University of Chicago, priority 2013, dated 2018).

SMILES strings stand for the structures.

Common to all, as to format: cell-based
The test system of one assay is AR protein. Kind of assay: Western blot of AR protein after Hsp90 inhibitor treatment of TNBC cell lines. The following applies: 50 nM, 8 hrs. The method, then:
(§1) TNBC cell lines were pre-treated for 2 hours with dexamethasone (100 nM) followed by ganetespib (50 nM). Protein and transcript levels were analyzed using Western blot and qRT-PCR respectively.

The subject of assay [1] is GR-α translational isoforms. Kind of assay: Western blot of GR protein after Hsp90 inhibitor treatment of TNBC cell lines. The following applies: 50 nM, 8 hrs. The method, then:
as §1
A general note: A western blot detects proteins with antibodies after separation by electrophoresis.

For the next assay, the system named is AR target gene TMPRSS2. Nature of the assay: qRT-PCR of AR target gene transcript. On the technique in general: Quantitative PCR measures a nucleic acid by following its amplification.
Assay [2] relates to GR target genes in MDA-MB-231. Nature of the assay: Multiplex RT-PCR assay of GR target genes. The following applies: MDA-MB-231, Veh/Veh = 1. How it is done: The multiplex RT-PCR assay was performed to discover GR target genes that are affected by HSP90 inhibitor treatment of a triple-negative breast cancer cell line, MDA-MB-231.
Assay [3] has as its system GR target gene transcripts (SGK1 and MKP1/DUSP1). Kind of assay: qRT-PCR of GR target gene transcripts in TNBC cell lines. The following applies: 100 nM dex 2 hours, then ganetespib 50 nM. How it is done:
as §1
This induction was reduced following ganetespib (50 nM) treatment.

For `CCNC(=O)c1noc(-c2cc(C(C)C)c(O)cc2O)c1-c1ccc(CN2CCOCC2)cc1` [NVP-AUY922], the AR protein level entry in the assay on AR protein was “depleted”. Further, the “GR-α translational isoforms protein level” value in assay [1] is given as “depleted”.

For `C[C@]1(O)CC[C@H]2[C@@H]3CCC4=CC(=O)CCC4=C3C=C[C@@]21C` [R1881], in the assay with AR target gene TMPRSS2 (R1881 1 nM pre-treatment for 2 hours), the “Expression of the AR target gene TMPRSS2” value is listed as “induced”.

As for `C[C@@H]1C[C@H]2[C@@H]3CCC4=CC(=O)C=C[C@]4(C)[C@@]3(F)[C@@H](O)C[C@]2(C)[C@@]1(O)C(=O)CO` [dexamethasone], in assay [2], the ANGPTL4 transcript level is 8.5, the BCL6 transcript level amounted to 2.6, the CALCR transcript level is 4.3 and the CEBPB transcript level was 4.1. In addition, in assay [2], the DDIT4 transcript level is reported as 2.9, the DUSP1 transcript level is 3.7, the EDN1 transcript level is on record as 2.3 and the ERRFI1 transcript level worked out at 3.4. For the same compound, in assay [2], the FKBP5 transcript level is given as 15.5, the GLUL transcript level is 1.5, the IL6R transcript level was 1.9 and the KLF9 transcript level was found to be 9.5. In assay [2], this compound had a KLF13 transcript level of 2.5, an LOX transcript level of 2.4, an MT1E transcript level of 2.7 and an MT2A transcript level of 3.0. In assay [2], this compound returned an NFKBIA transcript level of 2.0, a PER1 transcript level of 12.7, an RHOB transcript level of 5.6 and an SESN1 transcript level of 1.4. Besides, in assay [2], the SGK1 transcript level came out at 2.9, the SLC19A2 transcript level is 2.0, the SLC22A5 transcript level stood at 1.3 and the TNFAIP3 transcript level came out at 2.2. In addition, in assay [2], the TSC22D3 transcript level worked out at 22.8, the USP2 transcript level came out at 3.1, the XDH transcript level is on record as 1.3 and the ZFP36 transcript level is 4.3.

Regarding `CC(C)c1cc(-c2n[nH]c(=O)n2-c2ccc3c(ccn3C)c2)c(O)cc1O` [ganetespib], the AR protein level result in the assay on AR protein was “depleted”. In assay [3], the “Dexamethasone induction of GR target gene transcripts (SGK1 and MKP1/DUSP1)” value was “reduced”. In assay [1], the “GR-α translational isoforms protein level” value is reported as “depleted”. The “Androgen-induced expression of the AR target gene TMPRSS2” value in the assay on AR target gene TMPRSS2 (R1881 1 nM, concomitant ganetespib 50 nM) was “decreased”.
